Experimental data from patent US20120245137A1 (Zalicus Pharmaceuticals Ltd., priority 2009, published 2012).
Read-outs that look alike come from different tables or passages of the source.

Key:
Format in all cases: cell-based
[1] = target: Human Cav 2.2 channels (Homo sapiens, UniProt Q00975); assay: Fluorescent assay for CaV2.2 channels using potassium depolarization (VIPR/FLIPR); details: FLIPR data
Excerpt: Human Cav 2.2 channels were stably expressed in HEK293 cells along with alpha2-delta and beta subunits of voltage-gated calcium channels. An inwardly rectifying potassium channel (Kir2.3) was also expressed in these cells to allow more precise control of the cell membrane potential by extracellular potassium concentration. At low bath potassium concentration, the membrane potential is relatively negative, and is depolarized as the bath potassium concentration is raised. In this way, the bath potassium concentration can be used to regulate the voltage-dependent conformations of the channels. […] After the incubation period, Cav2.2 channel opening is triggered by addition of higher concentration of potassium (70 mM final concentration) to further depolarize the cell. The degree of state-dependent block can be estimated from the inhibitory potency of compounds after incubation in different potassium concentrations.
Calcium influx through Cav 2.2 channels is determined using a calcium sensitive fluorescent dye in combination with a fluorescent plate reader. Fluorescent changes were measured with either a VIPR (Aurora Instruments) or FLIPR (Molecular Devices) plate reader.
1. Seed cells in Poly-D-Lysine Coated 96 or 384-well plate and keep in a 3rC-IO % C02 incubator overnight.
2. Remove media, wash cells with 0.2 mL (96-well plate) or 0.05 mL (384-well plate) Dulbecco's Phosphate Buffered Saline (D-PBS) with calcium & magnesium (Invitrogen; 14040).
3. Add 0.1 mL (96-well plate) or 0.05 mL (384-well plate) of 4˜M fluor-4 (Molecular Probes; F-14202) and 0.02% Pluronic acid (Molecular Probes; P-3(00) prepared in D-PBS with calcium & magnesium (Invitrogen; 14040) supplemented with 10 mM Glucose & 10 mM HepeslNaOH; pH 7.4.
4. Incubate in the dark at 25° C. for 60-70 min.
5. Remove dye, wash cells with 0.1 mL (96-well plate) or 0.06 mL (384-well plate) of 4, 12, 25, or 30 mM Potassium Pre-polarization Buffer (PPB).
6. Add 0.1 mL (96-well plate) or 0.03 mL (384-well plate) of 4, 12, 25, 30 mM PPB with or without test compound.
7. Incubate in the dark at 25° C. for 30 min
8. Read cell plate on VIPR instrument, Excitation=480 nm, Emission=535 nm.
9. With VIPR continuously reading, add 0.1 mL (96-well plate) or 0.03 mL (384-well plate) of Depolarization Buffer (DB), which is 2× the final assay concentration, to the cell plate.

[2] = target: T-type calcium channel (Homo sapiens, UniProt O95180); assay: T-type channel blocking, FLIPR data (Table 6)
Excerpt: Another method, high-throughput spectrophotometric assay, utilizes loading of the cell lines with a fluorescent dye sensitive to intracellular calcium concentration and subsequent examination of the effects of compounds on the ability of depolarization by potassium chloride or other means to alter intracellular calcium levels.

[3] = target: CAv1.2 (Homo sapiens, UniProt Q13936); assay: FLIPR data, CAv1.2 channel blocking (Table 6)
CAv1.2, sequence (Q13936 whole entry): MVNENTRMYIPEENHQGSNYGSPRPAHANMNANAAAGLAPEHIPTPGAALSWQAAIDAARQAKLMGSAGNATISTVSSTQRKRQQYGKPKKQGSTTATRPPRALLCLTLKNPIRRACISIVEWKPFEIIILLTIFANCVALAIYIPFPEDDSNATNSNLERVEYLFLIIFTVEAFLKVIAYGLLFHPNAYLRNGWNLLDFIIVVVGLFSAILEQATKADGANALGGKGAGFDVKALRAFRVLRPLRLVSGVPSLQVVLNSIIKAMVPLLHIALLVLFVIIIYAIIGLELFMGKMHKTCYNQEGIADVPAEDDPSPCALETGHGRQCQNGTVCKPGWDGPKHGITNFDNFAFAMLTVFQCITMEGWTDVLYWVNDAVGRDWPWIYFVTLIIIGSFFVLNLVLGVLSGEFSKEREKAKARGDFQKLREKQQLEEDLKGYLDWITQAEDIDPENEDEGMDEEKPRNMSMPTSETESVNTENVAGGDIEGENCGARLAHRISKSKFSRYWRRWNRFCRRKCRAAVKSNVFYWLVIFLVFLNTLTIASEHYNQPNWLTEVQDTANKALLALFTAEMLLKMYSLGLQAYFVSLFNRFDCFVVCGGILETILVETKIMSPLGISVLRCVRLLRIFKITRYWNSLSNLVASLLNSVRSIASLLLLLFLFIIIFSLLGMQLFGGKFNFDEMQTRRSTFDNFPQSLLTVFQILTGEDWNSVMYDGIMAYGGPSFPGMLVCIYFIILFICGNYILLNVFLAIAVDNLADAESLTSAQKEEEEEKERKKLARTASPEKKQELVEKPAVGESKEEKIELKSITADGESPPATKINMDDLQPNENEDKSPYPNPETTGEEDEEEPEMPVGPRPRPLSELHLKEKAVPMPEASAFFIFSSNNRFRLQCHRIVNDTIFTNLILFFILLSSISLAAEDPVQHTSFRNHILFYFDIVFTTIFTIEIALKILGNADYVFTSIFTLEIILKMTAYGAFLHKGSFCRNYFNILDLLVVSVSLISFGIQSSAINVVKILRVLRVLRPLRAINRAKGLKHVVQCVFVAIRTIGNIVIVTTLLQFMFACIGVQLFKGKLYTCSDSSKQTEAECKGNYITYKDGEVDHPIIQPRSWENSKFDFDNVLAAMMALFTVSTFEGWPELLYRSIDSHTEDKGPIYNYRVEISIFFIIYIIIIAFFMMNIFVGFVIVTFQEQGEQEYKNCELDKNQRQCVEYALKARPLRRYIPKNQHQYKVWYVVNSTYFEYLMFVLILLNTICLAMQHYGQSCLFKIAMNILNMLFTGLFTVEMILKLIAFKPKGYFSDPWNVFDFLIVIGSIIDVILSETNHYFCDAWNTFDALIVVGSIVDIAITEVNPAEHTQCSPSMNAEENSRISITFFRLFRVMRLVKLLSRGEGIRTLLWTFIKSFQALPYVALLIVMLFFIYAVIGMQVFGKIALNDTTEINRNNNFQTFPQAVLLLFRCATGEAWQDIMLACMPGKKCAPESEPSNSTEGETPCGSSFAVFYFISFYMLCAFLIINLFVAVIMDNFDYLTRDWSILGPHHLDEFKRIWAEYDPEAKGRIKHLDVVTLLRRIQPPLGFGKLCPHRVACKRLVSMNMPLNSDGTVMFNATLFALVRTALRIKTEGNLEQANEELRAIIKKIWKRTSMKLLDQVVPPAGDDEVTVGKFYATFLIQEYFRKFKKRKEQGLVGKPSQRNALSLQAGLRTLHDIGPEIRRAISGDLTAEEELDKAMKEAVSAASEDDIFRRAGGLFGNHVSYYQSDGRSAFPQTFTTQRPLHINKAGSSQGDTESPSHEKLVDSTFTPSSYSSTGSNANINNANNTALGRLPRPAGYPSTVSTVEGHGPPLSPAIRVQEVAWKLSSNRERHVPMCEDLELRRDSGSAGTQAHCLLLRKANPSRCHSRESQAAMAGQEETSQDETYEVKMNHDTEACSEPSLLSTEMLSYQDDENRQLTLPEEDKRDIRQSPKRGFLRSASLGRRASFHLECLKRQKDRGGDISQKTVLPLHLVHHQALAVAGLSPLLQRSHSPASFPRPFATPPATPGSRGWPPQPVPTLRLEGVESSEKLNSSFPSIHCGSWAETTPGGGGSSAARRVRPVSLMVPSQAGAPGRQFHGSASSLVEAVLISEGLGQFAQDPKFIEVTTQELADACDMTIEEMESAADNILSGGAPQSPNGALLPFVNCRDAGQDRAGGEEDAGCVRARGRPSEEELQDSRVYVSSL
CAv1.2, sequence (P54289 25-1103 partner): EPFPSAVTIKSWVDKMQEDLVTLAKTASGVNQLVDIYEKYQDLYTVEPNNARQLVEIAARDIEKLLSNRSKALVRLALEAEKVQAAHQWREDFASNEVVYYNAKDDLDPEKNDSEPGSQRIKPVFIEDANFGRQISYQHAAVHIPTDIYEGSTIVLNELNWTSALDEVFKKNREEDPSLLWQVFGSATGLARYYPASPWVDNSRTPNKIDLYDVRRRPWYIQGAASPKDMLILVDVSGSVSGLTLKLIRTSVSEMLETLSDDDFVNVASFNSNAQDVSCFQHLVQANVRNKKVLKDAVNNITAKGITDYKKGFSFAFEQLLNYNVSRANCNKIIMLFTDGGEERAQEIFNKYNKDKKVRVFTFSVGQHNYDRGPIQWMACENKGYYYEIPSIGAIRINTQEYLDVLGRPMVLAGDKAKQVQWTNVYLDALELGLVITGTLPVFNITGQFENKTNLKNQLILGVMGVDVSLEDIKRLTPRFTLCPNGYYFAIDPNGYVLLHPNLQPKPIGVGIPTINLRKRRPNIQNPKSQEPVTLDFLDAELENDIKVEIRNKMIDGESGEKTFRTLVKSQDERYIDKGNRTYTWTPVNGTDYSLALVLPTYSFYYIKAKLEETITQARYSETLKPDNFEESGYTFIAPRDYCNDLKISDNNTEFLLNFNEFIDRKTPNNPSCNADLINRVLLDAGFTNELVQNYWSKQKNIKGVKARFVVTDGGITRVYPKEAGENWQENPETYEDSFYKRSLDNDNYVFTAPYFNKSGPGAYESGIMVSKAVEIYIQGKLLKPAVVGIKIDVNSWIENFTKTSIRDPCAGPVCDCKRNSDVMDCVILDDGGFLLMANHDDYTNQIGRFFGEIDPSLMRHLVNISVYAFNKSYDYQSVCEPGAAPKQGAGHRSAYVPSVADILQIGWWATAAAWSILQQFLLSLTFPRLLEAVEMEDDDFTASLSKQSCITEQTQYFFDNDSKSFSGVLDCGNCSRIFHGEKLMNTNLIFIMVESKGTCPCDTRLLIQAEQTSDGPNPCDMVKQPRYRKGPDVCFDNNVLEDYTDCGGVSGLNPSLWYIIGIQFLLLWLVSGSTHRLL
CAv1.2, sequence (Q08289 whole entry partner): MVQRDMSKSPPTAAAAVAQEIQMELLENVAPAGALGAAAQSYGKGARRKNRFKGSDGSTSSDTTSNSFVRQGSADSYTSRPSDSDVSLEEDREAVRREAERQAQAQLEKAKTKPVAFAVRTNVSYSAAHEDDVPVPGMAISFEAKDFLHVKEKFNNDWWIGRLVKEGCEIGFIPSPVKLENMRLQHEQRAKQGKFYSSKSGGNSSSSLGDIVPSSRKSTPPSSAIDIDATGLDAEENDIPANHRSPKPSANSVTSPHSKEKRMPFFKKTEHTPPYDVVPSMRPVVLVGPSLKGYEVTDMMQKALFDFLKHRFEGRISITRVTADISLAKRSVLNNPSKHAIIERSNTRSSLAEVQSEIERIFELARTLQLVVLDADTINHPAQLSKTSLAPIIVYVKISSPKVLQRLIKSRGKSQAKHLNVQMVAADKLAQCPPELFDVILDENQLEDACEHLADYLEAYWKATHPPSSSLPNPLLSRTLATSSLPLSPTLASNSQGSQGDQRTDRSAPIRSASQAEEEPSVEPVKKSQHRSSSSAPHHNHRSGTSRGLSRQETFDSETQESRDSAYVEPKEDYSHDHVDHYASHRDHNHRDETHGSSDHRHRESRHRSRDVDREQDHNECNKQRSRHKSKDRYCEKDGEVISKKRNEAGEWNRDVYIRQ

[4] = closed state, read-out: CAv2.2 IC50 Closed
[5] = inactivated state, read-out: CAv2.2 IC50 Inact.
[6] = CAv3.2, closed state, read-out: CAv3.2 IC50 Closed
[7] = closed state, read-out: CAv1.2 IC50 Closed
[8] = inactivated state, read-out: CAv1.2 IC50 Inact.
[9] = CAv3.2, inactivated state, read-out: CAv3.2 IC50 Inact.
[10] = CAv3.2, ratio closed/inactivated IC50

| SMILES | IC50 [1, 4] | IC50 [1, 5] | CAv2.2 IC50 Ratio closed/inact. ([1]; ratio closed/inactivated IC50) | IC50 [2, 6] | IC50 [3, 7] | IC50 [3, 8] | IC50 [2, 9] | CAv3.2 IC50 Ratio closed/inact. [2, 10] | CAv2.2 IC50 Ratio closed/inact. ([1]; ratio closed/inact.) | CAv3.2 IC50 Ratio closed/inact. ([2]; CAv3.2, ratio closed/inact.) |
| --- | --- | --- | --- | --- | --- | --- | --- | --- | --- | --- |
| Cc1nc(S(=O)(=O)N[C@H]2C[C@@H](C(C)(C)S(=O)(=O)c3cc(F)cc(C(F)(F)F)c3)C2)cn1C [Compound 604] | 10 µM | 4.38 µM | 2.3 | ≥ 10 µM | ≥ 10 µM | ≥ 10 µM |  |  |  |  |
| CC(C)([C@H]1C[C@H](NC(=O)c2ccc(Cl)cc2S(C)(=O)=O)C1)S(=O)(=O)c1cccc(C(F)(F)F)c1 [Compound 679] | 10 µM | 0.48 µM | 20.8 | ≥ 10 µM |  |  | 10 µM | 1 |  |  |
| O=C(NC[C@H]1C[C@H](S(=O)(=O)c2cccc(Cl)c2)C1)c1cnc(C(F)(F)F)nc1 [Compound 773] |  | 9.88 µM |  | ≥ 10 µM |  |  | 10 µM |  | 1 | 1 |
| CC(C)(C[C@H]1C[C@H](NC(=O)CC2(N)CCCCC2)C1)S(=O)(=O)c1cccc(C(F)(F)F)c1 [Compound 726] | 2.77 µM | 0.9 µM | 3.1 | ≥ 10 µM | ≥ 10 µM | ≥ 10 µM | 10 µM | 1 |  |  |
| N[C@H]1CCCC[C@@H]1C(=O)NC[C@H]1C[C@H](S(=O)(=O)c2cc(F)cc(C(F)(F)F)c2)C1 [Compound 712] | 10 µM | 6.02 µM | 1.7 |  | ≥ 10 µM | ≥ 10 µM | 10 µM |  |  |  |
| Cc1nc(S(=O)(=O)N[C@H]2C[C@H](C(C)(C)S(=O)(=O)c3cccc(C(F)(F)F)c3)C2)cn1C [Compound 670] | 10 µM | 8.66 µM | 1.2 |  |  |  |  |  |  |  |
| N[C@@H]1CCCC[C@@H]1C(=O)NC[C@H]1C[C@H](S(=O)(=O)c2cccc(OC(F)(F)F)c2)C1 (single isomer, unassigned) [Compound 700] | 3.55 µM | 1.25 µM | 2.8 |  |  |  | 10 µM |  |  |  |
| CC(C)([C@H]1C[C@H](NC(=O)c2ccc(S(C)(=O)=O)cc2Cl)C1)S(=O)(=O)c1cccc(C(F)(F)F)c1 [Compound 680] | 10 µM | 1.31 µM | 7.6 | ≥ 10 µM |  |  | 10 µM | 1 |  |  |
| O=C(NC[C@H]1C[C@H](S(=O)(=O)c2cccc(C(F)(F)F)c2)C1)c1ncc(C(F)(F)F)cn1 [Compound 574] | 10 µM | 1.29 µM | 7.8 |  |  |  |  |  |  |  |
| O=C(NC[C@H]1C[C@H](S(=O)(=O)c2cccc(OC(F)(F)F)c2)C1)c1ccc(OCC(F)(F)F)nc1 [Compound 699] | 7.86 µM |  | 3.1 | ≥ 10 µM | ≥ 10 µM |  |  | 1 |  |  |
| CS(=O)(=O)c1cc(Cl)ccc1C(=O)NC[C@H]1C[C@H](S(=O)(=O)c2cc(F)cc(C(F)(F)F)c2)C1 [Compound 715] | 10 µM | 1.38 µM | 7.2 | ≥ 10 µM | ≥ 10 µM | ≥ 10 µM | 7.51 µM | 1.3 |  |  |
| CS(=O)(=O)c1cc(C(F)(F)F)cnc1C(=O)NC[C@H]1C[C@H](S(=O)(=O)c2cc(F)cc(C(F)(F)F)c2)C1 [Compound 701] | 10 µM | 2.21 µM | 4.5 |  |  | ≥ 10 µM | 10 µM |  |  |  |
| CC(C)([C@H]1C[C@@H](NC(=O)CC2(N)CCCCC2)C1)S(=O)(=O)c1cccc(OC(F)(F)F)c1 [Compound 655] | 6.52 µM | 1.16 µM | 5.6 |  | ≥ 10 µM | ≥ 10 µM | 10 µM |  |  |  |
| Cc1nc(S(=O)(=O)N[C@H]2C[C@@H](C(C)(C)S(=O)(=O)c3cccc(C(F)(F)F)c3)C2)cn1C [Compound 631] |  | 6.9 µM | 1.4 |  |  |  |  |  |  |  |
| NC1(CC(=O)NC[C@H]2C[C@H](S(=O)(=O)c3cccc(Cl)c3)C2)CCCCC1 [Compound 776] | 10 µM | 9.37 µM |  |  |  |  | 10 µM |  | 1.1 |  |
| O=C(c1ccc(C(F)(F)F)cn1)N1CC(CS(=O)(=O)c2cc(F)cc(C(F)(F)F)c2)C1 [Compound 746] |  | ≥ 10 µM |  | ≥ 10 µM |  |  | 10 µM |  |  | 1 |
| N[C@H]1CCCC[C@@H]1C(=O)NC[C@H]1C[C@H](S(=O)(=O)c2cccc(OC(F)(F)F)c2)C1 [Compound 713] |  |  |  |  |  |  | 10 µM |  |  |  |
| N[C@@H]1CCCC[C@@H]1C(=O)NC[C@H]1C[C@H](S(=O)(=O)c2cc(F)cc(C(F)(F)F)c2)C1 (single isomer, unassigned) [Compound 707] | 10 µM |  |  |  |  |  | 10 µM |  |  |  |
| CC(C)([C@H]1C[C@@H](NC(=O)CC2(N)CCCCC2)C1)S(=O)(=O)c1cccc(C(F)(F)F)c1 [Compound 652] | 8.87 µM | 1.19 µM | 7.5 |  |  |  | 10 µM |  |  |  |
| CC(C)(C[C@H]1C[C@H](NC(=O)[C@H]2CCCC[C@H]2N)C1)S(=O)(=O)c1cccc(C(F)(F)F)c1 [Compound 742] | 3.36 µM | 1.05 µM |  |  |  |  | 10 µM |  | 3.2 |  |
| CC(C)([C@H]1C[C@H](NC(=O)c2ncc(C(F)(F)F)cn2)C1)S(=O)(=O)c1cccc(C(F)(F)F)c1 [Compound 678] | 8.95 µM | 0.79 µM | 11.3 |  |  |  |  |  |  |  |
| CNC1(CC(=O)N[C@H]2C[C@@H](C(C)(C)S(=O)(=O)c3cccc(C(F)(F)F)c3)C2)CCCCC1 [Compound 657] | 9.32 µM | 2.15 µM | 4.3 |  | ≥ 10 µM |  |  |  |  |  |
| N[C@@H]1CCCC[C@H]1C(=O)NC[C@H]1C[C@H](S(=O)(=O)c2cccc(Cl)c2)C1 [Compound 777] | 10 µM | ≥ 10 µM |  |  |  |  | 10 µM |  | 1 |  |
| CC(C)([C@H]1C[C@@H](NC(=O)c2ccc(S(C)(=O)=O)cc2Cl)C1)S(=O)(=O)c1cccc(C(F)(F)F)c1 [Compound 577] | 10 µM | 0.64 µM | 15.6 |  | ≥ 10 µM | ≥ 10 µM |  |  |  |  |
| N[C@H]1CCCC[C@H]1C(=O)NC[C@H]1C[C@H](S(=O)(=O)c2cccc(Cl)c2)C1 [Compound 778] |  | ≥ 10 µM |  |  |  |  | 10 µM |  |  |  |
